# Experimental data from PMC4129416, “YLT192, a Novel, Orally Active Bioavailable Inhibitor of VEGFR2 Signaling with Potent Antiangiogenic Activity and Antitumor Efficacy in Preclinical Models” (Scientific Reports, 2014).
# Tests used:
# [1] = system: VEGFR2 signaling pathway in HUVEC; assay: Western blot of VEGF-induced VEGFR2 phosphorylation and downstream signalling in HUVEC; assay type: cell-based, human; conditions: concentration-dependent
# Method: Figure 2 Effects of YLT192 on HUVECs proliferation, migration, invasion and tube formation. […] Cells were wounded by the pipette and then treated with various concentrations of compounds for 24 hours. Migrated cells were quantified by manual counting (50×). […] The bottom chambers of the transwells were filled with 600 μL EGM2 containing various growth factors while the top chambers were seeded with 4 × 10^4 HUVECs in EBM2 and treated with different concentrations of compounds for 24 hours. Cells invaded through the membrane were stained and quantified (100×). […] HUVECs were seeded on Matrigel layer and treated with different concentrations of compounds. HUVECs tube formation was assessed 6 hours later (50×). One representative experiment of three is shown. For (A), (B) and (C), data represent the mean ± SEM of three different experiments. Each experiment was performed in duplicate.*P < 0.05, **P < 0.01. (D) YLT192 inhibited VEGF-induced phosphorylation of VEGFR2 and its downstream signal regulator p44/42 MAPK, STAT3 and AKT in HUVECs. One representative Western blot of three is presented. Each has the expression of β-actin as internal control. The full size blots were shown in the Supplemental Figure S5 online. (E) Cellular thermal shift assay showing VEGFR2 target engagement by YLT192 in intact HUVECs. One representative Western blot of two is presented. […]
# [2] = system: HUVEC; assay: EdU incorporation assay, VEGF165-stimulated HUVEC; assay type: cell-based, human
# Method: The inhibition effect of YLT192 on VEGF165-stimulated HUVEC growth was examined using MTT assay.
# EdU is a thymidine analogue used to label proliferating cells which can incorporate into replication DNA when cells are dividing. Cells growing in 96-well plates were treated with different concentrations of YLT192 for 24 hours, and then assayed with Cell-Light™ EdU DNA Cell Proliferation Kit according to the manufacture's instructions. Each assay was replicated 3 times.
# Supplementary Figure S2. YLT192 inhibited VEGF-stimulated HUVECs proliferation in the EdU incorporation assay. The EdU-positive(red ﬂuorescent staining) cells and Hoechst staining(blue ﬂuorescent staining) cells represented proliferating and total cells, respectively(100×). Quantification was shown on the right panels. Data represent the mean ± SEM of three different experiments. Each experiment was performed in duplicate. *P<0.05, **P<0.01. […]
# [3] = system: COLO-205; assay: Inhibition of tumor cell growth; assay type: cell-based; conditions: COLO-205, human colorectal carcinoma; 48 hour treatment; means ± SD, n=3
# Source text: Data are means ± SD, n=3.
# cell line cell type IC50(μM) […]
# COLO-205 human colorectal carcinoma 23.0 ±1.5
smiles,measurement,setting,value
CNC(=O)c1cc(Oc2ccc(NC(=O)c3cccc(OC)c3)cc2)ccn1 [YLT192],"VEGF-stimulated phosphorylation of VEGFR2 and downstream p44/42 MAPK, AKT, and STAT3",[1],clearly reduced
same,"VEGF165-stimulated HUVEC proliferation, EdU incorporation",[2],inhibited VEGF165-stimulated HUVEC proliferation
same,IC50,[3],23 ± 1.5 µM
